Assays:
rat LHRH receptor = biological target: T1, rat LHRH receptor (Rattus norvegicus, UniProt P30969); assay: LHRH receptor-ligand binding assay (transfected LTK cells); details: LTK cells transfected with rat LHRH receptor, 125I-triptorelin tracer, 37° C., 60 min; read-out: Binding to r-LHRHR EC50
T1 construct: expressed in transfected cells; host or cells: LTK cells (mouse fibroblasts, ATCC CCL-1.3)
T1 sequence (P30969 1-327): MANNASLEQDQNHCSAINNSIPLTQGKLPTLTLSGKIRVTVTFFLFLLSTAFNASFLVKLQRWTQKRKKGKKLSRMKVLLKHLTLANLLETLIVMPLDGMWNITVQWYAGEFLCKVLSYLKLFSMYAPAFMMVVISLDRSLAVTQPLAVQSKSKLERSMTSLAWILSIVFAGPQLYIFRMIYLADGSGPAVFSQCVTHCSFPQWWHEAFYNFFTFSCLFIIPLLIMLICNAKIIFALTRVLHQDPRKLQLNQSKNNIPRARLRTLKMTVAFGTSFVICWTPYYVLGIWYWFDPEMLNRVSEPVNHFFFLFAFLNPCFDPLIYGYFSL
Experimental: ^125I-Triptorelin [^125I-(D)-Trp6-GnRH] was purchased from Biotrend (Cologne, Germany).
The specific activity was in each case 2.13 Ci/mmol.
LTK cells (mouse fibroblasts: ATCC No. CCL-1.3) which have been transfected with the rat LHRH receptor are cultivated in DMEM medium (Invitrogen Life Technologies, Germany) with penicillin (100 I.U./ml), streptomycin (0.1 mg/ml) and glutamine (0.01 mol/l) and 10% fetal calf serum (FCS; Invitrogen Life Technologies, Germany) on plastic tissue culture plates (Nunc, Germany, 245×245-20 mm).
80% confluent cell culture plates are washed twice with 50 ml of phosphate-buffered saline (PBS) and then detached with 0.01 M EDTA solution. The cells are pelleted by centrifugation at 200·g for 5 min in a laboratory centrifuge (Kendro, Germany). The cell pellet is resuspended in 3 ml of binding medium (DMEM; 10 mM Hepes; 0.5% BSA; 0.1% […]; 1 g/l bacitracin (add fresh, stock 100×); 0.1 g/l SBTI (add fresh, stock 1000×) and the cell count is determined by Trypan blue staining in a Neubauer counting chamber. The cell suspension is adjusted with binding medium to a concentration of 5×10^5 cells/0.05 ml.
Binding studies for competition plots are carried out as duplicates. The test substances are employed as 10 mM DMSO solutions. They are diluted to 4 times the final concentration employed with binding medium. 25 μl of the substance dilution are mixed with 25 μl of tracer solution (^125I-triptorelin or ^125I-cetrorelix). The tracer concentration is adjusted to approx. 50 000 cpm (measured in a Cobra II, γ counter. PE Liefe Science, Germany) in the final reaction volume of 100 μl.
200 μl of silicone/liquid paraffin mixture (84%:16%) are introduced into 650 μl conical tubes (Roth. Germany). 50 μl of the cell suspension are pipetted thereon, followed by 50 μl of the test substance/tracer mixture. The tubes are capped and incubated with vertical rotation in an incubator at 37° C. for 60 min. After incubation, the samples are centrifuged in a centrifuge (Kendro, Germany) at 900 rpm and subsequently shock-frozen in liquid N2. The tip with the cell pellet is cut off and transferred into prepared counting vials (Roth, Germany). The remainder of the conical tube with the remaining supernatant is likewise transferred into a counting vial. The measurement takes place in a γ counter for 1 min/sample.
Evaluation of the samples takes place after calculation of the specific binding compared with untreated cells, after subtraction of the nonspecific binding (excess of unlabeled ligand, 1 μM) by means of GraphPad Prism or alternatively by means of OMMM software.

[1] = Metabolic stability in rat liver microsomes; type: in vitro ADME; details: 1 μM, 37° C., NADPH
Experimental: The metabolic stability in relation to liver microsomes (species human, rat) was determined in accordance with the following description: the substances were incubated at a test concentration of 1 […] An HPLC MS/MS method was subsequently used to quantify the unmetabolized amount of starting compound relative to 100%.

EC50 (rat LHRH receptor): 7.9 nM
recovery at 1 μM [1]: 78%
SMILES: CCC(C)[C@H](NC(=O)OCc1ccccc1)C(=O)N[C@]1(C(=O)N[C@H](C(N)=S)C(C)CC)CCc2[nH]c3c(Cl)cc(Cl)cc3c2C1 (stereo partly drawn) [Compound 7, benzyl {(S)-1-[(R)-6,8-dichloro-3-((S)-2-methyl-1-thiocarbamoylbutylcarbamoyl)-2,3,4,9-tetrahydro-1H-carbazol-3-ylcarbamoyl]-2-methylbutyl}carbamate]

From patent publication US8067456B2 (AEterna Zentaris GmbH, priority 2004, dated 2011)
